Data from PubChem BioAssay AID220 (DTP/NCI, 2004).
“And” between values parts separate entries of the source, which are not always exact repeats. Equal entries are not always repeated. Inconclusive results are not listed.

Test system: CD8F1 mice, subcutaneous mammary adenocarcinoma, T/C%
Test: NCI In Vivo Anticancer Drug Screen. Data for tumor model Mammary Adenocarcinoma CD8F1 (subcutaneous) in CD8F1
Conditions: higher = larger tumour
Summary of the method: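 Tumor-bearing mice, transplantable model; readout survival or tumor size; value = treated (T) / vehicle control (C).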

[1] = endpoint: median tumor weight (est.), dose: 25.0 mg/kg/injection, schedule: Q07DX005 (ip), vehicle: Klucel (hydroxypropylcellulose) (HPC)
[2] = endpoint: median tumor weight (est.), dose: 50.0 mg/kg/injection, schedule: Q07DX005 (ip), vehicle: Klucel (hydroxypropylcellulose) (HPC)
[3] = endpoint: median tumor weight (est.), dose: 100.0 mg/kg/injection, schedule: Q07DX005 (ip), vehicle: Klucel (hydroxypropylcellulose) (HPC)
[4] = endpoint: median tumor weight (est.), dose: 200.0 mg/kg/injection, schedule: Q07DX005 (ip), vehicle: Klucel (hydroxypropylcellulose) (HPC)
[5] = endpoint: median tumor weight change, dose: 6.25 mg/kg/injection, schedule: Q01DX001 (ip), vehicle: saline
[6] = endpoint: median tumor weight change, dose: 12.5 mg/kg/injection, schedule: Q01DX001 (ip), vehicle: saline
[7] = endpoint: median tumor weight change, dose: 25.0 mg/kg/injection, schedule: Q01DX001 (ip), vehicle: saline

O=C(O)C1CC(O)CN1 (stereo unspecified)
T/C (endpoint: median tumor weight change, dose: 125.0 mg/kg/injection, schedule: Q01DX001 (ip), vehicle: saline): 71 % of control
T/C (endpoint: median tumor weight change, dose: 250.0 mg/kg/injection, schedule: Q01DX001 (ip), vehicle: saline): 64 % of control and 78 % of control
T/C (endpoint: median tumor weight change, dose: 500.0 mg/kg/injection, schedule: Q01DX001 (ip), vehicle: saline): 59 % of control and 69 % of control
T/C (endpoint: median tumor weight change, dose: 1000.0 mg/kg/injection, schedule: Q01DX001 (ip), vehicle: saline): 66 % of control and 70 % of control
T/C (endpoint: median tumor weight change, dose: 2000.0 mg/kg/injection, schedule: Q01DX001 (ip), vehicle: saline): 13 % of control and 15 % of control

Cc1cc(NCCCCCCNc2cc(C)nc3cc(N(C)C)ccc23)c2ccc(N(C)C)cc2n1
T/C (endpoint: median tumor weight change, dose: 31.0 mg/kg/injection, schedule: Q01DX001 (ip), vehicle: distilled water + Tween-80 + alcohol): 42 % of control
T/C (endpoint: median tumor weight change, dose: 62.0 mg/kg/injection, schedule: Q01DX001 (ip), vehicle: distilled water + Tween-80 + alcohol): 103 % of control
T/C (endpoint: median tumor weight change, dose: 125.0 mg/kg/injection, schedule: Q01DX001 (ip), vehicle: distilled water + Tween-80 + alcohol): 36 % of control

CN(C)N=Nc1cn[nH]c1C(N)=O
T/C [1]: 97 % of control
T/C [2]: 56 % of control
T/C [3]: 73 % of control
T/C [4]: 57 % of control

O=C(Nc1ccc(Cl)c(Cl)c1)Nc1c(Oc2ccc(Cl)c(Cl)c2)ccc(Cl)c1S(=O)(=O)O
T/C (endpoint: median tumor weight (est.), dose: 6.25 mg/kg/injection, schedule: Q07DX005 (ip), vehicle: Klucel (hydroxypropylcellulose) (HPC)): 114 % of control
T/C (endpoint: median tumor weight (est.), dose: 6.25 mg/kg/injection, schedule: Q07DX005 (ip), vehicle: saline): 78 % of control
T/C (endpoint: median tumor weight (est.), dose: 12.5 mg/kg/injection, schedule: Q07DX005 (ip), vehicle: Klucel (hydroxypropylcellulose) (HPC)): 244 % of control
T/C (endpoint: median tumor weight (est.), dose: 12.5 mg/kg/injection, schedule: Q07DX005 (ip), vehicle: saline): 123 % of control
T/C [1]: 110 % of control
T/C (endpoint: median tumor weight (est.), dose: 25.0 mg/kg/injection, schedule: Q07DX005 (ip), vehicle: saline): 123 % of control
T/C [2]: 318 % of control
T/C [3]: 65 % of control
T/C (endpoint: median tumor weight (est.), dose: 100.0 mg/kg/injection, schedule: Q07DX005 (ip), vehicle: saline): 121 % of control
T/C [4]: 323 % of control
T/C (endpoint: median tumor weight (est.), dose: 200.0 mg/kg/injection, schedule: Q07DX005 (ip), vehicle: saline): 114 % of control

CC[n+]1c(-c2ccccc2)c2cc(N)ccc2c2ccc(N)cc21
T/C (endpoint: median tumor weight (est.), dose: 10.0 mg/kg/injection, schedule: Q07DX005 (ip), vehicle: water): 85 % of control
T/C (endpoint: median tumor weight (est.), dose: 20.0 mg/kg/injection, schedule: Q07DX005 (ip), vehicle: water): 105 % of control

O=NN(CCCl)C(=O)NC1[C@H](O)CCC[C@@H]1O (stereo partly specified)
T/C [5]: 71 % of control and 73 % of control
T/C [6]: 15 % of control and 17 % of control
T/C [7]: 6 % of control

C=C(C)[C@H]1CN[C@H](C(=O)O)[C@H]1CC(=O)O
T/C (endpoint: median tumor weight change, dose: 3.12 mg/kg/injection, schedule: Q01DX001 (ip), vehicle: saline): 99 % of control
T/C [5]: 77 % of control
T/C [6]: 77 % of control
T/C [7]: 73 % of control

O=C(CCBr)N1CCN(C(=O)CCBr)CC1
T/C (endpoint: median tumor weight (est.), dose: 10.0 mg/kg/injection, schedule: Q07DX005 (ip), vehicle: Klucel (hydroxypropylcellulose) (HPC)): 94 % of control
T/C (endpoint: median tumor weight (est.), dose: 20.0 mg/kg/injection, schedule: Q07DX005 (ip), vehicle: Klucel (hydroxypropylcellulose) (HPC)): 53 % of control
T/C (endpoint: median tumor weight (est.), dose: 40.0 mg/kg/injection, schedule: Q07DX005 (ip), vehicle: Klucel (hydroxypropylcellulose) (HPC)): 67 % of control
T/C (endpoint: median tumor weight (est.), dose: 80.0 mg/kg/injection, schedule: Q07DX005 (ip), vehicle: Klucel (hydroxypropylcellulose) (HPC)): 42 % of control
T/C (endpoint: median tumor weight (est.), dose: 160.0 mg/kg/injection, schedule: Q07DX005 (ip), vehicle: Klucel (hydroxypropylcellulose) (HPC)): 19 % of control
T/C (endpoint: median tumor weight (est.), dose: 320.0 mg/kg/injection, schedule: Q07DX005 (ip), vehicle: Klucel (hydroxypropylcellulose) (HPC)): 6 % of control

O=C(CC(=O)C(F)(F)F)c1csc2ccccc12
T/C (endpoint: median tumor weight change, dose: 31.25 mg/kg/injection, schedule: Q01DX001 (ip), vehicle: Klucel (hydroxypropylcellulose) (HPC)): 35 % of control
T/C (endpoint: median tumor weight change, dose: 62.5 mg/kg/injection, schedule: Q01DX001 (ip), vehicle: Klucel (hydroxypropylcellulose) (HPC)): 39 % of control
T/C (endpoint: median tumor weight change, dose: 125.0 mg/kg/injection, schedule: Q01DX001 (ip), vehicle: Klucel (hydroxypropylcellulose) (HPC)): 65 % of control
